Test system: Chilo suppressalis
Test: Rice field trials, Chilo suppressalis insect damage / white heads (Example 1, Trials 3-4, Thailand)
Type: in vivo
Conditions: Trial 3
Procedure: All applications were made with an EC formulation containing 650 g/L of pelargonic acid (e.g., 685 g/L of 95% purity pelargonic acid), an anionic emulsifier and a branched fatty acid ester solvent. […] Trials 1 4 assessing the use of pelargonic acid for controlling Chilo suppressalis in rice were conducted in Spain and Thailand. Application A was made to the crops at the beginning of infestations; for these trials, Stage BBCH 59; Application B was made 14 days after Application A. Trial 3 was conducted in Thailand using a water volume of 500 L/ha of water per application unless otherwise indicated. Insect Damage ([…] %), Insect Damage (Number) and Phytotoxicity were assessed at various treatment evaluation intervals. Population levels were recorded by counting number of rice plants per hill, number of white head (damage from rice stem borer) followed by calculation of % insect damage. Trial 4 was conducted in Thailand using a water volume of 500 L/ha of water per application unless otherwise indicated. Insect Damage ([…] %), Insect Damage (Number) and Phytotoxicity were assessed at various treatment evaluation intervals. Population levels were recorded by counting number of rice plants per hill, number of white head (damage from rice stem borer) followed by calculation of % insect damage.

[1] = 0 DAA, water volume 500 L/ha, rate in treatment name, Prevathon 0.5 L/ha, listed as PA 585 g/ha
[2] = 0 DAA, water volume 500 L/ha, rate in treatment name, Prevathon 0.5 L/ha, listed as PA 975 g/ha
[3] = 0 DAA, water volume 500 L/ha, rate in treatment name, Prevathon 0.5 L/ha, listed as PA 1300 g/ha
[4] = 0 DAA, water volume 500 L/ha, rate in treatment name, Prevathon 0.5 L/ha, listed as PA 2600 g/ha
[5] = 0 DAB, water volume 500 L/ha, rate in treatment name, Prevathon 0.5 L/ha, listed as PA 585 g/ha
[6] = 0 DAB, water volume 500 L/ha, rate in treatment name, Prevathon 0.5 L/ha, listed as PA 975 g/ha
[7] = 0 DAB, water volume 500 L/ha, rate in treatment name, Prevathon 0.5 L/ha, listed as PA 1300 g/ha
[8] = 0 DAB, water volume 500 L/ha, rate in treatment name, Prevathon 0.5 L/ha, listed as PA 2600 g/ha
[9] = 7 DAA, water volume 500 L/ha, rate in treatment name, Prevathon 0.5 L/ha, listed as PA 585 g/ha
[10] = 7 DAA, water volume 500 L/ha, rate in treatment name, Prevathon 0.5 L/ha, listed as PA 975 g/ha
[11] = 7 DAA, water volume 500 L/ha, rate in treatment name, Prevathon 0.5 L/ha, listed as PA 1300 g/ha
[12] = 7 DAA, water volume 500 L/ha, rate in treatment name, Prevathon 0.5 L/ha, listed as PA 2600 g/ha
[13] = 7 DAB, water volume 500 L/ha, rate in treatment name, Prevathon 0.5 L/ha, listed as PA 585 g/ha
[14] = 7 DAB, water volume 500 L/ha, rate in treatment name, Prevathon 0.5 L/ha, listed as PA 975 g/ha
[15] = 7 DAB, water volume 500 L/ha, rate in treatment name, Prevathon 0.5 L/ha, listed as PA 1300 g/ha
[16] = 7 DAB, water volume 500 L/ha, rate in treatment name, Prevathon 0.5 L/ha, listed as PA 2600 g/ha
[17] = 10 DAA, water volume 500 L/ha, rate in treatment name, Prevathon 0.5 L/ha, listed as PA 585 g/ha
[18] = 10 DAA, water volume 500 L/ha, rate in treatment name, Prevathon 0.5 L/ha, listed as PA 975 g/ha
[19] = 10 DAA, water volume 500 L/ha, rate in treatment name, Prevathon 0.5 L/ha, listed as PA 1300 g/ha
[20] = 10 DAA, water volume 500 L/ha, rate in treatment name, Prevathon 0.5 L/ha, listed as PA 2600 g/ha
[21] = 10 DAB, water volume 500 L/ha, rate in treatment name, Prevathon 0.5 L/ha, listed as PA 585 g/ha
[22] = 10 DAB, water volume 500 L/ha, rate in treatment name, Prevathon 0.5 L/ha, listed as PA 975 g/ha
[23] = 10 DAB, water volume 500 L/ha, rate in treatment name, Prevathon 0.5 L/ha, listed as PA 1300 g/ha
[24] = 10 DAB, water volume 500 L/ha, rate in treatment name, Prevathon 0.5 L/ha, listed as PA 2600 g/ha
[25] = 14 DAB, water volume 500 L/ha, rate in treatment name, Prevathon 0.5 L/ha, listed as PA 585 g/ha
[26] = 14 DAB, water volume 500 L/ha, rate in treatment name, Prevathon 0.5 L/ha, listed as PA 975 g/ha
[27] = 14 DAB, water volume 500 L/ha, rate in treatment name, Prevathon 0.5 L/ha, listed as PA 1300 g/ha
[28] = 14 DAB, water volume 500 L/ha, rate in treatment name, Prevathon 0.5 L/ha, listed as PA 2600 g/ha
[29] = 21 DAB, water volume 500 L/ha, rate in treatment name, Prevathon 0.5 L/ha, listed as PA 585 g/ha
[30] = 21 DAB, water volume 500 L/ha, rate in treatment name, Prevathon 0.5 L/ha, listed as PA 975 g/ha
[31] = 21 DAB, water volume 500 L/ha, rate in treatment name, Prevathon 0.5 L/ha, listed as PA 1300 g/ha

SMILES: CCCCCCCCC(=O)O [PA 650 g/ha, pelargonic acid]
- DAMINS % (insect damage, % white heads) (0 DAA, water volume 200 L/ha): 0.83%
- DAMINS (number): mean number of insect damage (white head symptoms) (0 DAA, water volume 200 L/ha): 3.4
- DAMINS % (insect damage, % white heads) [1]: 0.79%
- DAMINS (number): mean number of insect damage (white head symptoms) [1]: 3.23
- DAMINS % (insect damage, % white heads) [2]: 0.9%
- DAMINS (number): mean number of insect damage (white head symptoms) [2]: 3.8
- DAMINS % (insect damage, % white heads) [3]: 0.75%
- DAMINS (number): mean number of insect damage (white head symptoms) [3]: 3.11
- DAMINS % (insect damage, % white heads) [4]: 0.74%
- DAMINS (number): mean number of insect damage (white head symptoms) [4]: 3.14
- DAMINS % (insect damage, % white heads) (0 DAB, water volume 200 L/ha): 0.25%
- DAMINS (number): mean number of insect damage (white head symptoms) (0 DAB, water volume 200 L/ha): 0.94
- DAMINS % (insect damage, % white heads) [5]: 0.6%
- DAMINS (number): mean number of insect damage (white head symptoms) [5]: 2.54
- DAMINS % (insect damage, % white heads) [6]: 0.46%
- DAMINS (number): mean number of insect damage (white head symptoms) [6]: 1.91
- DAMINS % (insect damage, % white heads) [7]: 0.39%
- DAMINS (number): mean number of insect damage (white head symptoms) [7]: 1.61
- DAMINS % (insect damage, % white heads) [8]: 0.29%
- DAMINS (number): mean number of insect damage (white head symptoms) [8]: 1.23
- DAMINS % (insect damage, % white heads) (7 DAA, water volume 200 L/ha): 0.29%
- DAMINS (number): mean number of insect damage (white head symptoms) (7 DAA, water volume 200 L/ha): 1.16
- DAMINS % (insect damage, % white heads) [9]: 0.65%
- DAMINS (number): mean number of insect damage (white head symptoms) [9]: 2.93
- DAMINS % (insect damage, % white heads) [10]: 0.53%
- DAMINS (number): mean number of insect damage (white head symptoms) [10]: 2.13
- DAMINS % (insect damage, % white heads) [11]: 0.4%
- DAMINS (number): mean number of insect damage (white head symptoms) [11]: 1.74
- DAMINS % (insect damage, % white heads) [12]: 0.39%
- DAMINS (number): mean number of insect damage (white head symptoms) [12]: 1.79
- DAMINS % (insect damage, % white heads) (7 DAB, water volume 200 L/ha): 0.55%
- DAMINS (number): mean number of insect damage (white head symptoms) (7 DAB, water volume 200 L/ha): 2.4
- DAMINS % (insect damage, % white heads) [13]: 0.84%
- DAMINS (number): mean number of insect damage (white head symptoms) [13]: 3.82
- DAMINS % (insect damage, % white heads) [14]: 0.73%
- DAMINS (number): mean number of insect damage (white head symptoms) [14]: 3.31
- DAMINS % (insect damage, % white heads) [15]: 0.64%
- DAMINS (number): mean number of insect damage (white head symptoms) [15]: 2.84
- DAMINS % (insect damage, % white heads) [16]: 0.49%
- DAMINS (number): mean number of insect damage (white head symptoms) [16]: 2.24
- DAMINS % (insect damage, % white heads) (10 DAA, water volume 200 L/ha): 0.25%
- DAMINS (number): mean number of insect damage (white head symptoms) (10 DAA, water volume 200 L/ha): 0.99
- DAMINS % (insect damage, % white heads) [17]: 0.63%
- DAMINS (number): mean number of insect damage (white head symptoms) [17]: 2.92
- DAMINS % (insect damage, % white heads) [18]: 0.58%
- DAMINS (number): mean number of insect damage (white head symptoms) [18]: 2.26
- DAMINS % (insect damage, % white heads) [19]: 0.41%
- DAMINS (number): mean number of insect damage (white head symptoms) [19]: 1.77
- DAMINS % (insect damage, % white heads) [20]: 0.31%
- DAMINS (number): mean number of insect damage (white head symptoms) [20]: 1.49
- DAMINS % (insect damage, % white heads) (10 DAB, water volume 200 L/ha): 0.44%
- DAMINS (number): mean number of insect damage (white head symptoms) (10 DAB, water volume 200 L/ha): 1.84
- DAMINS % (insect damage, % white heads) [21]: 0.71%
- DAMINS (number): mean number of insect damage (white head symptoms) [21]: 3.39
- DAMINS % (insect damage, % white heads) [22]: 0.66%
- DAMINS (number): mean number of insect damage (white head symptoms) [22]: 3.11
- DAMINS % (insect damage, % white heads) [23]: 0.38%
- DAMINS (number): mean number of insect damage (white head symptoms) [23]: 1.65
- DAMINS % (insect damage, % white heads) [24]: 0.33%
- DAMINS (number): mean number of insect damage (white head symptoms) [24]: 1.39
- DAMINS % (insect damage, % white heads) (14 DAB, water volume 200 L/ha): 0.39%
- DAMINS (number): mean number of insect damage (white head symptoms) (14 DAB, water volume 200 L/ha): 1.53
- DAMINS % (insect damage, % white heads) [25]: 0.56%
- DAMINS (number): mean number of insect damage (white head symptoms) [25]: 2.35
- DAMINS % (insect damage, % white heads) [26]: 0.64%
- DAMINS (number): mean number of insect damage (white head symptoms) [26]: 2.82
- DAMINS % (insect damage, % white heads) [27]: 0.45%
- DAMINS (number): mean number of insect damage (white head symptoms) [27]: 1.94
- DAMINS % (insect damage, % white heads) [28]: 0.3%
- DAMINS (number): mean number of insect damage (white head symptoms) [28]: 1.25
- DAMINS % (insect damage, % white heads) (21 DAB, water volume 200 L/ha): 0.36%
- DAMINS (number): mean number of insect damage (white head symptoms) (21 DAB, water volume 200 L/ha): 1.47
- DAMINS % (insect damage, % white heads) [29]: 0.8%
- DAMINS (number): mean number of insect damage (white head symptoms) [29]: 3.41
- DAMINS % (insect damage, % white heads) [30]: 0.6%
- DAMINS (number): mean number of insect damage (white head symptoms) [30]: 2.7
- DAMINS % (insect damage, % white heads) [31]: 0.39%
- DAMINS (number): mean number of insect damage (white head symptoms) [31]: 1.64

— patent US20250127162A1, “METHODS AND COMPOSITIONS FOR CONTROLLING PESTS IN RICE” (Globachem NV, priority 2022, published 2025)
